Patent US20260137703A1, “2-AMINO-PYRIDO[2,3-D]PYRIMIDIN-7(8H)-ONE AND 7-AMINO-1-PYRIMIDO[4,5-D]PYRIMIDIN-2(1 H)-ONE DERIVATIVES AS EGFR INHIBITORS FOR THE TREATMENT OF CANCER” (Cancer Research Technology Limited, priority 2022, published 2026)

Columns and labels:
[1] = target: T1, Phospho-EGFR (Tyr1068) in A431 cells (Homo sapiens, UniProt P00533); assay: HTRF pEGFR/total EGFR in A431 cells with EGF stimulation; format: cell-based; conditions: ratio pEGFR/total EGFR, compound 2.5 hours then 100 ng/ml EGF 30 mins
T1 construct: endogenous in cells; host or cells: A431
T1 sequence (P00533 25-1210): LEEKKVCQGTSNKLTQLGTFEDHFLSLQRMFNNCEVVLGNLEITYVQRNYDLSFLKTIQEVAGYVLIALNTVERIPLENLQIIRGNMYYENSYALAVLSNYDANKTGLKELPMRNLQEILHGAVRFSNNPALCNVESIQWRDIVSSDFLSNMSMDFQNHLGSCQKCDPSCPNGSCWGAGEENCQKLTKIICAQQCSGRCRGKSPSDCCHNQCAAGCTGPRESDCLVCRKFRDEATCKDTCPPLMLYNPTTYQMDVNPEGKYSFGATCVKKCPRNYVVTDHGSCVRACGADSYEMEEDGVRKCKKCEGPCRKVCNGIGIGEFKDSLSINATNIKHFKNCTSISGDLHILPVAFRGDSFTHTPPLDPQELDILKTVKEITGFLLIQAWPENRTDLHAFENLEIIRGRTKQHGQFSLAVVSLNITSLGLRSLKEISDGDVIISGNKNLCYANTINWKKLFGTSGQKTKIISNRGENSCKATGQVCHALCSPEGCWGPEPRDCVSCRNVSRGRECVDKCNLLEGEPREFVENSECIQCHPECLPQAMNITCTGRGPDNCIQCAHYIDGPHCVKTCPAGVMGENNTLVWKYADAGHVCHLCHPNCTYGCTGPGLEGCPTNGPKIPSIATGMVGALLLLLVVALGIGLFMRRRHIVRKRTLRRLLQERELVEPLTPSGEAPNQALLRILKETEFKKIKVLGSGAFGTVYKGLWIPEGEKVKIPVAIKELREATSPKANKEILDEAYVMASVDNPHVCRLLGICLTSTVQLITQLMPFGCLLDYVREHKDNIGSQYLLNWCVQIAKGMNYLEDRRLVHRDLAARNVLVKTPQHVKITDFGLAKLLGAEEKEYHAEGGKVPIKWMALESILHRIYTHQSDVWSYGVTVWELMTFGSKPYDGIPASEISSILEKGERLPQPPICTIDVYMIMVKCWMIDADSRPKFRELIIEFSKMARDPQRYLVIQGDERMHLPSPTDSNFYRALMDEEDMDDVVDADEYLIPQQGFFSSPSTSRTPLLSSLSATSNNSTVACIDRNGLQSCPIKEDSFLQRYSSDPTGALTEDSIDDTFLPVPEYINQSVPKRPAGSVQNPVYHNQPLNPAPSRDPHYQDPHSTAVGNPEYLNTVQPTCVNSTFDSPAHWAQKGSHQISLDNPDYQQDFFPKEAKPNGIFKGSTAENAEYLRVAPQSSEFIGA
Procedure, shortened: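 Values are pEGFR(Tyr1068)/total EGFR HTRF ratios (665/620 nm) given as percent of the 0 μM control. Adhered A431 cells (20,000 per well, 24 h) had 2.5 h compound pretreatment in 0.1% DMSO, then 30 min of 100 ng/ml EGF before lysis.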

[2] = target: T2, Phospho-EGFR (Tyr1068) in H1975 C797S cells (CRISPR-edited EGFR C797S) (Homo sapiens, UniProt P00533, C797S/L858R/T790M); assay: HTRF pEGFR/total EGFR in H1975 C797S cells; format: cell-based; conditions: ratio pEGFR/total EGFR, compound 3 hours
T2 construct: host or cells: H1975 C797S (CRISPR-edited)
T2 sequence (P00533 25-1210 T790M/C797S/L858R): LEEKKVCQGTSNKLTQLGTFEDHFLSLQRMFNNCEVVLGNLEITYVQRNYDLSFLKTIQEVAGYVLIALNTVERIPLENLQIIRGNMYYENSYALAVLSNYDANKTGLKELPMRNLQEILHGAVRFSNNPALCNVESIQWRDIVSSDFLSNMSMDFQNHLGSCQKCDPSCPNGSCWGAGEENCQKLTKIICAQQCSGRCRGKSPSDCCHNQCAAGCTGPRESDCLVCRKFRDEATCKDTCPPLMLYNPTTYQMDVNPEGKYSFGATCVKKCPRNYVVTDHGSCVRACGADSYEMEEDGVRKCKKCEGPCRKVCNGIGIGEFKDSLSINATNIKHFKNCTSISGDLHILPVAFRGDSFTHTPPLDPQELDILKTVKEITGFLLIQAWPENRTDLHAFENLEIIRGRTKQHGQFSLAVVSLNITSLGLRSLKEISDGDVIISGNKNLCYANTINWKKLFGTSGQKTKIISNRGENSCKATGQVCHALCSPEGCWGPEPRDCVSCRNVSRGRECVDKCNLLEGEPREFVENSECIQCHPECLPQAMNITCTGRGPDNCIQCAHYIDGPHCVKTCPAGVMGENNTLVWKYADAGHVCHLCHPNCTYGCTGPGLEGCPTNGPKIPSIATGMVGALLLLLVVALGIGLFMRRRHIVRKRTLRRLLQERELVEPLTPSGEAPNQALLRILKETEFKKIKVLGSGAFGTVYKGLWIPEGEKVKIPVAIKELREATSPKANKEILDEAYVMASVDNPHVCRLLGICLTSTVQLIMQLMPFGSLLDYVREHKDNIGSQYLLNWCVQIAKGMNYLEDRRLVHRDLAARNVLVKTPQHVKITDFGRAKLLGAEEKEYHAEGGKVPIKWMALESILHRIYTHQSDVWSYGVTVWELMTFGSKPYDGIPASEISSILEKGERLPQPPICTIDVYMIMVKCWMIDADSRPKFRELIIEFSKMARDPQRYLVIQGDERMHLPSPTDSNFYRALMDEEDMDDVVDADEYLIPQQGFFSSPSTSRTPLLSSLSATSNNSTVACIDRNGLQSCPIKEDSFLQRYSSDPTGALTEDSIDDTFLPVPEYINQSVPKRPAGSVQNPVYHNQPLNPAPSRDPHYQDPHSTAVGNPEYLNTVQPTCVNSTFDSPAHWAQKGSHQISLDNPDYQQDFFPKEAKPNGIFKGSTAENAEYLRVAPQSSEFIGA
Procedure, shortened: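 Readout is the HTRF-measured Tyr1068 phospho-EGFR to total EGFR ratio, normalised to the 0 μM control as percent. Preceding this, CRISPR-edited H1975 C797S cells, plated 24 h earlier, were exposed 3 h to duplicate compound doses in medium with 0.1% DMSO, then lysed on a shaker.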

[3] = target: CtermHisTag-mEGFR Wild type (Homo sapiens, UniProt P00533); assay: biochemical
Chain of CtermHisTag-mEGFR Wild type (P00533 whole entry): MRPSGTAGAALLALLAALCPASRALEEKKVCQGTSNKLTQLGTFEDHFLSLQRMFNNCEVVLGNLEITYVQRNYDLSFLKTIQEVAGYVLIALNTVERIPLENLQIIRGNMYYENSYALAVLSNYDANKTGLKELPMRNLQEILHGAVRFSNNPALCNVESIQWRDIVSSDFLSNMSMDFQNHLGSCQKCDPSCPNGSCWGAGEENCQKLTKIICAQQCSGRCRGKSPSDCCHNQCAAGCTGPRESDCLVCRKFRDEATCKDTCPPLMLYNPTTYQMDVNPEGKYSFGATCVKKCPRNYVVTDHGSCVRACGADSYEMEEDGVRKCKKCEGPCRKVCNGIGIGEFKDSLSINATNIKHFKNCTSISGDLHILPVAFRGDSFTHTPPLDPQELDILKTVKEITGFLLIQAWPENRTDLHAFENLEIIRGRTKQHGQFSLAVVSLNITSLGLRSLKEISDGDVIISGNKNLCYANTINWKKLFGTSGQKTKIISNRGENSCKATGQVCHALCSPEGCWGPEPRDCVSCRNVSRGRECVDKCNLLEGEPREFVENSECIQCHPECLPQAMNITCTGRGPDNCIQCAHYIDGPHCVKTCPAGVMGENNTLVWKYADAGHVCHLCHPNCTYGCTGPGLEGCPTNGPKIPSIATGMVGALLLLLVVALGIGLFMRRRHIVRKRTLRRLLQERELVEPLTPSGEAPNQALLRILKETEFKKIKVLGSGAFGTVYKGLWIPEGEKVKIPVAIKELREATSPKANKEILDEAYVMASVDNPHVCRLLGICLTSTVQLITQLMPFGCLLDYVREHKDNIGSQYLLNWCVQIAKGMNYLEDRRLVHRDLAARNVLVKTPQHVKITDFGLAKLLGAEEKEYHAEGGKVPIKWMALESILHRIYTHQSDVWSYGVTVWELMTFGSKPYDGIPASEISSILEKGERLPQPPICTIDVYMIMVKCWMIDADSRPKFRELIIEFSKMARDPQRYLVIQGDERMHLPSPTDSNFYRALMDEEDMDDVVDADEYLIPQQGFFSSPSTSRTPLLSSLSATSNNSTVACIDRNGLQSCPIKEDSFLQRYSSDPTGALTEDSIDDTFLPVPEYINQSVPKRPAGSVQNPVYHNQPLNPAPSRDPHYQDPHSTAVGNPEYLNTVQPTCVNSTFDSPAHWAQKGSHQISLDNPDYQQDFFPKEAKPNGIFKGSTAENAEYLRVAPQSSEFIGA

[4] = target: T3, Phospho-EGFR (Tyr1068) in H1975 cells (Homo sapiens, UniProt P00533, L858R/T790M); assay: HTRF pEGFR/total EGFR in H1975 cells; format: cell-based; conditions: ratio pEGFR/total EGFR, compound 3 hours
T3 construct: host or cells: H1975
T3 sequence (P00533 25-1210 T790M/L858R): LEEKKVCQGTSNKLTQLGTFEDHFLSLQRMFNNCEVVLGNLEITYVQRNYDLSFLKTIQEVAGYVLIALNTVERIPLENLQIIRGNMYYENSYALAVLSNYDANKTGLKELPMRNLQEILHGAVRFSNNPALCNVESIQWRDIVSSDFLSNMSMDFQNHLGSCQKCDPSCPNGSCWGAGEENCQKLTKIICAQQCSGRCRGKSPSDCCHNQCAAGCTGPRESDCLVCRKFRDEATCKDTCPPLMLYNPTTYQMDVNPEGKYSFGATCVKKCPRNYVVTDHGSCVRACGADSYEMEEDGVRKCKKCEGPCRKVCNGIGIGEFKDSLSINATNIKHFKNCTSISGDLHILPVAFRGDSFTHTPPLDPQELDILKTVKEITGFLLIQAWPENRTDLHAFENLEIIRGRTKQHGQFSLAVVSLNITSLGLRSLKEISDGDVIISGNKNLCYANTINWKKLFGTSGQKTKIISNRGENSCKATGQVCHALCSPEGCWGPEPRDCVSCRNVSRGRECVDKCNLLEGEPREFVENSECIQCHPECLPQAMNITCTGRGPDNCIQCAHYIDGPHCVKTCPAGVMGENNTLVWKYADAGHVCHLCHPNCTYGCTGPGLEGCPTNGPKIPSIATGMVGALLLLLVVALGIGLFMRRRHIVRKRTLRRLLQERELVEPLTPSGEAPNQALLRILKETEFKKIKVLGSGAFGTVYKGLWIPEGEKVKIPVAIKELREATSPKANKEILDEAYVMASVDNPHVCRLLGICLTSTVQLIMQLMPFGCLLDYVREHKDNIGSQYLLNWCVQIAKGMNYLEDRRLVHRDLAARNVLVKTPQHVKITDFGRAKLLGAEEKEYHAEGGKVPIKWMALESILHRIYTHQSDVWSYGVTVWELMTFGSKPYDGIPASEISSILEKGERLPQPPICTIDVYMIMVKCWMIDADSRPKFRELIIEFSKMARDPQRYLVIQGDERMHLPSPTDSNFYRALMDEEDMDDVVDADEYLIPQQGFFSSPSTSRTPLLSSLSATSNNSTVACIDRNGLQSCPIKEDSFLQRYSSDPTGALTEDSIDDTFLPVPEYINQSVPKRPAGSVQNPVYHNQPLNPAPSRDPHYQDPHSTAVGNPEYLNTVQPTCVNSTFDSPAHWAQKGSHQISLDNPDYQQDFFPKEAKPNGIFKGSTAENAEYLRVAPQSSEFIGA
Procedure, shortened: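 Readout is the phospho-EGFR (Tyr1068) to total EGFR HTRF ratio, expressed relative to 0 μM control. Adhered H1975 cells were exposed to compound for 3 hours at 0.1% DMSO, duplicate wells, then lysed for 30 min at room temperature before two-wavelength fluorescence reading.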

| Compound | IC50 [1] | IC50 [2] | IC50 [3] | IC50 [4] |
| --- | --- | --- | --- | --- |
| C#Cc1cc(=O)n([C@H]2CC[C@@H](NC(=O)CC)CC2)c2nc(Nc3ccc(N4CCN(C)CC4)cc3)ncc12 [Example 81, N-[(1s,4s)-4-(5-Ethynyl-2-{[4-(4-methylpiperazin-1-yl)phenyl]amino}-7-oxopyrido[2,3-d]pyrimidin-8-yl)cyclohexyl]propanamide] | > 3000 nM | < 500 nM | < 1000 nM | < 500 nM |
| C#Cc1cc(=O)n(-c2cccc(NC(=O)COC(C)=O)c2)c2nc(Nc3ccccc3OC)ncc12 [Example 59, 2-((3-(5-Ethynyl-2-((2-methoxyphenyl)amino)-7-oxopyrido[2,3-d]pyrimidin-8(7H)-yl)phenyl)amino)-2-oxoethyl acetate] | > 3000 nM | > 3000 nM | 1000 to 10000 nM | > 3000 nM |
| C#Cc1cc(=O)n(C)c2nc(Nc3ccc(N4CCN(C)CC4)c(C(=O)NCC4CCCC4)c3)ncc12 [Example 221, N-(Cyclopentylmethyl)-5-({5-ethynyl-8-methyl-7-oxopyrido[2,3-d]pyrimidin-2-yl}amino)-2-(4-methylpiperazin-1-yl)benzamide] | > 3000 nM | 1000 to 3000 nM | 1000 to 10000 nM | 500 to 1000 nM |
| C#Cc1cc(=O)n(-c2ccccc2)c2nc(Nc3ccc(N4CCN(C)CC4)c(C)c3)ncc12 [Example 12, 5-Ethynyl-2-{[3-methyl-4-(4-methylpiperazin-1-yl)phenyl]amino}-8-phenylpyrido[2,3-d]pyrimidin-7-one] | > 3000 nM | < 500 nM | < 1000 nM | < 500 nM |
| C#Cc1cc(=O)n(-c2ccccc2)c2nc(Nc3ccc(N4CCN(C)CC4)c(CC)c3)ncc12 [Example 24, 2-{[3-Ethyl-4-(4-methylpiperazin-1-yl)phenyl]amino}-5-ethynyl-8-phenylpyrido[2,3-d]pyrimidin-7-one] | > 3000 nM | < 500 nM | < 1000 nM | < 500 nM |
| C#Cc1cc(=O)n(Cc2ccn(C)n2)c2nc(Nc3ccc(N4CCN(C)CC4)cc3)ncc12 [Example 118, 5-ethynyl-2-{[4-(4-methylpiperazin-1-yl)phenyl]amino}-8-[(1-methylpyrazol-3-yl)methyl]pyrido[2,3-d]pyrimidin-7-one] | 1000 to 3000 nM | < 500 nM | < 1000 nM | < 500 nM |
| C#Cc1c(C)c(=O)n(Cc2cnco2)c2nc(Nc3ccc(N4CCN(C)CC4)cc3)ncc12 [Example 176, 5-Ethynyl-6-methvl-2-{[4-(4-methylpiperazin-1-yl)phenyl]aminol}-8-(1,3-oxazol-5-ylmethyl)pyrido[2,3-d]pyrimidin-7-one] | > 3000 nM | 1000 to 3000 nM | < 1000 nM | 1000 to 3000 nM |
| C#Cc1cc(=O)n(-c2ccccc2)c2nc(Nc3ccc(N4CCN(C)CC4)cc3)ncc12 [Example 37, 5-Ethynyl-2-((4-(4-methylpiperazin-1-yl)phenyl)amino)-8-phenylpyrido[2,3-d]pyrimidin-7(8H)-one] | 1000 to 3000 nM | 1000 to 3000 nM | < 1000 nM | < 500 nM |
| C#Cc1cc(=O)n(C2CCCC2)c2nc(Nc3cccc(CN4CCC(CS(C)(=O)=O)C4)c3)ncc12 (stereo not drawn) [Example 182] | > 3000 nM | > 3000 nM | > 10000 nM | > 3000 nM |
| C#Cc1cc(=O)n(-c2ccccc2)c2nc(Nc3ccc(N4CCN(C)CC4)c(CO)c3)ncc12 [Example 31, 5-Ethynyl-2-{[3-(hydroxymethyl)-4-(4-methylpiperazin-1-yl)phenyl]amino}-8-phenylpyrido[2,3-d]pyrimidin-7-one] | > 3000 nM | 500 to 1000 nM | < 1000 nM | < 500 nM |
| C#Cc1c(-c2cccc(F)c2Cl)c(=O)n(C)c2nc(Nc3ccc(N(C)CCN(C)C)cc3)ncc12 [Example 135, 6-(2-chloro-3-fluorophenyl)-2-[(4-{[2-(dimethylamino)ethyl](methyl)amino}phenyl)amino]-5-ethynyl-8-methylpyrido[2,3-d]pyrimidin-7-one] | 1000 to 3000 nM | 500 to 1000 nM | < 1000 nM | 500 to 1000 nM |
| C#Cc1cc(=O)n(C2CCCC2)c2nc(Nc3ccc(N4CCN(C)CC4)cc3)ncc12 [Example 78, 8-cyclopentyl-5-ethynyl-2-((4-(4-methylpiperazin-1-yl)phenyl)amino)pyrido[2,3-d]pyrimidin-7(8H)-one] | > 3000 nM | < 500 nM | < 1000 nM | < 500 nM |
| C#Cc1cc(=O)n(-c2cccc(N)c2)c2nc(Nc3ccccc3OC)ncc12 [Example 55, 8-(3-Aminophenyl)-5-ethynyl-2-((2-methoxyphenyl)amino)pyrido[2,3-d]pyrimidin-7(8H)-one] | > 3000 nM | > 3000 nM | 1000 to 10000 nM | 1000 to 3000 nM |
| C#Cc1cc(=O)n(-c2ccccc2)c2nc(Nc3ccc4c(c3)CCNCC4)ncc12 [Example 26, 5-ethynyl-8-phenyl-2-(2,3,4,5-tetrahydro-1H-3-benzazepin-7-ylamino)pyrido [2,3-d]pyrimidin-7-one] | 1000 to 3000 nM | < 500 nM | < 1000 nM | < 500 nM |
| C#Cc1cc(=O)n(C)c2nc(Nc3cccc(N(C)C(=O)CN(C)C)c3)ncc12 [Example 53, 2-(Dimethylamino)-N-[3-({5-ethynyl-8-methyl-7-oxopyrido[2,3-d]pyrimidin-2-yl}amino)phenyl]-N-methylacetamide] | > 3000 nM | > 3000 nM | 1000 to 10000 nM | > 3000 nM |
| C#Cc1cc(=O)n2c3nc(ncc13)Nc1ccc(N3CCN(C)CC3)c(c1)OCCOCC2 [Example 232, 1^5-Ethynyl-3^4-(4-Methylpiperazin-1-yl)-1^7,1^8-dihydro-4,7-dioxa-2-aza-1(2,8)-pyrido[2,3-d]pyrimidina-3(1,3)-benzenacyclononaphan-1^7-one] | > 3000 nM | < 500 nM | < 1000 nM | < 500 nM |
| C#Cc1cc(=O)n2c3nc(ncc13)Nc1ccc(N3CCN(C)CC3)c(c1)C(=O)NCCC2 [Example 224, 1^5-ethynyl-3^4-(4-methylpiperazin-1-yl)-1^7,1^8-dihydro-2,5-diaza-1(2,8)-pyrido[2,3-d]pyrimidina-3(1,3)-benzenacyclooctaphane-1^7,4-dione] | > 3000 nM | > 3000 nM | > 10000 nM | > 3000 nM |
| C#Cc1cc(=O)n2c3nc(ncc13)Nc1ccc(N3CCN(C)CC3)c(c1)OCCC[C@H]2C [Example 239, (R)-1^5-ethynyl-8-methyl-3^4-(4-methylpiperazin-1-yl)-1^7,1^8-dihydro-4-oxa-2-aza-1(2,8)-pyrido[2,3-d]pyrimidina-3(1,3)-benzenacyclooctaphan-1^7-one] | > 3000 nM | < 500 nM | < 1000 nM | < 500 nM |
| C#Cc1cc(=O)n(C)c2nc(Nc3ccc(N4CCN(C)CC4)c(OCCc4ccnn4C)c3)ncc12 [Example 220, 5-Ethynyl-8-methyl-2-((3-(2-(1-methyl-1H-pyrazol-5-yl)ethoxy)-4-(4-methylpiperazin-1-yl)phenyl)amino)pyrido[2,3-d]pyrimidin-7(8H)-one] | 1000 to 3000 nM | < 500 nM | < 1000 nM | < 500 nM |
| C#Cc1cc(=O)n(-c2ccccc2)c2nc(Nc3ccc(N4CCOCC4)cc3)ncc12 [Example 6, 5-Ethynyl-2-((4-morpholinophenyl)amino)-8-phenylpyrido[2,3-d]pyrimidin-7(8H)-one] | 1000 to 3000 nM | < 500 nM | < 1000 nM | < 500 nM |
| C#Cc1cc(=O)n(C2CCN(C)C2)c2nc(Nc3ccc(N4CCN(C)CC4)cc3)ncc12 (stereo not drawn) [Example 107, 5-ethynyl-2-{[4-(4-methylpiperazin-1-yl)phenyl]amino}-8-(1-methylpyrrolidin-3-yl)pyrido[2,3-d]pyrimidin-7-one] | > 3000 nM | 1000 to 3000 nM | > 10000 nM | > 3000 nM |
| C#Cc1cc(=O)n(C)c2nc(Nc3ccc(N4CCN(C)CC4)c(OCCC)c3)ncc12 [Example 207, 5-Ethynyl-8-methyl-2-((4-(4-methylpiperazin-1-yl)-3-propoxyphenyl)amino)pyrido[2,3-d]pyrimidin-7(8H)-one] | 500 to 1000 nM | < 500 nM | < 1000 nM | < 500 nM |
| C#Cc1cc(=O)n([C@H]2CC[C@@H](NC(=O)CN(C)C)CC2)c2nc(Nc3ccc(N4CCN(C)CC4)cc3)ncc12 [Example 100, 2-(Dimethylamino)-N-[(1s,4s)-4-(5-ethynyl-2-{[4-(4-methylpiperazin-1-yl)phenyl]amino}-7-oxopyrido[2,3-d]pyrimidin-8-yl)cyclohexyl]acetamide] | 1000 to 3000 nM | < 500 nM | 1000 to 10000 nM | < 500 nM |
| C=Cc1cc(=O)n(-c2cccc(OC)c2)c2nc(Nc3ccccc3OC)ncc12 [Example 156, 8-(3-Methoxyphenyl)-2-((2-methoxyphenyl)amino)-5-vinylpyrido[2,3-d]pyrimidin-7(8H)-one] | > 3000 nM | > 3000 nM | > 10000 nM | > 3000 nM |
